Test results as given in ChEMBL document CHEMBL1140113, “Structural requirements for drug inhibition of the liver specific human organic cation transport protein 1” (J Med Chem, 2008).

Target: T1, OCT1 (SLC22A1) (Homo sapiens, UniProt O15245)
T1 sequence (O15245 whole entry): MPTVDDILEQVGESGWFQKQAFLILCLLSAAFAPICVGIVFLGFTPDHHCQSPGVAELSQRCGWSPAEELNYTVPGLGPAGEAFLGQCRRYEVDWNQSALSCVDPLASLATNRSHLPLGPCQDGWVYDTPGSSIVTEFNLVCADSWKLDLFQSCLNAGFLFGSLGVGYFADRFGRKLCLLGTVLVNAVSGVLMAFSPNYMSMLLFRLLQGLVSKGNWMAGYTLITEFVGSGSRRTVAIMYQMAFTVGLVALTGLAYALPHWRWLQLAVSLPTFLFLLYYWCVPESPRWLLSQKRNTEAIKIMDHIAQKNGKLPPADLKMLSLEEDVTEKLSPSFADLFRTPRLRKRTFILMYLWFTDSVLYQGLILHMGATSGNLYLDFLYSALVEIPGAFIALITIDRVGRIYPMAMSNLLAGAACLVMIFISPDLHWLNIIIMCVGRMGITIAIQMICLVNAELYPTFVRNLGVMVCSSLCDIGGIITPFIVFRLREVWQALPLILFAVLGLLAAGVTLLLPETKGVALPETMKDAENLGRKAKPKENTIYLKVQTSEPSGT
Assay: in vitro
Details: HEK293 cells that express human OCT1, probe 4-(4-(dimethylamino)styryl)-N-methylpyridinium

Compound	inhibition at 100 µM
O=P(O)(O)C(Cl)(Cl)P(=O)(O)O [CLODRONIC ACID]	5.6%
OC[C@@H](O)[C@@H](O)[C@H](O)[C@H](O)CO [MANNITOL]	-1.4%
CN1CCN2c3ccccc3Cc3ccccc3C2C1 (configuration not stated) [MIANSERIN]	48.4%
Cn1c(=O)c2c(ncn2C)n(C)c1=O [CAFFEINE]	-1.4%
NCCCC(N)(C(=O)O)C(F)F (configuration not stated) [EFLORNITHINE]	5.5%
C[C@]12CCC(=O)C=C1CC[C@@H]1[C@@H]2CC[C@]2(C)C(=O)CC[C@@H]12 [ANDROSTENEDIONE]	65.1%
CC(=O)Nc1ccc(O)cc1 [ACETAMINOPHEN]	-9.2%
CC(C)OC(=O)C(C)(C)Oc1ccc(C(=O)c2ccc(Cl)cc2)cc1 [FENOFIBRATE]	0.2%
CO[C@H]1/C=C/O[C@@]2(C)Oc3c(C)c(O)c4c(O)c(c(/C=N/N5CCN(C)CC5)c(O)c4c3C2=O)NC(=O)/C(C)=C\C=C\[C@H](C)[C@H](O)[C@@H](C)[C@@H](O)[C@@H](C)[C@H](OC(C)=O)[C@@H]1C [RIFAMPIN]	26.2%
CCN(CC)CCCC(C)Nc1ccnc2cc(Cl)ccc12 (configuration not stated) [CHLOROQUINE]	46%
CC(C)C(=O)Nc1ccc([N+](=O)[O-])c(C(F)(F)F)c1 [FLUTAMIDE]	34.1%
CC[C@H]1OC(=O)[C@H](C)[C@@H](O[C@H]2C[C@@](C)(OC)[C@@H](O)[C@H](C)O2)[C@H](C)[C@@H](O[C@@H]2O[C@H](C)C[C@H](N(C)C)[C@H]2O)[C@](C)(O)C[C@@H](C)C(=O)[C@H](C)[C@@H](O)[C@]1(C)O [ERYTHROMYCIN]	14%
NS(=O)(=O)c1cc2c(cc1Cl)NCNS2(=O)=O [HYDROCHLOROTHIAZIDE]	-9.8%
C[C@]12C[C@H](O)[C@H]3[C@@H](CCC4=CC(=O)CC[C@@]43C)[C@@H]1CC[C@@H]2C(=O)CO [CORTICOSTERONE]	33.5%
Oc1ncnc2[nH]ncc12 [ALLOPURINOL]	7.7%
C[C@]12C=CC(=O)C=C1CC[C@@H]1[C@@H]2C(=O)C[C@@]2(C)[C@H]1CC[C@]2(O)C(=O)CO [PREDNISONE]	23.3%
CN[C@H](CC(C)C)C(=O)N[C@H]1C(=O)N[C@@H](CC(N)=O)C(=O)N[C@H]2C(=O)N[C@H]3C(=O)N[C@H](C(=O)N[C@H](C(=O)O)c4cc(O)cc(O)c4-c4cc3ccc4O)[C@H](O)c3ccc(c(Cl)c3)Oc3cc2cc(c3O[C@@H]2O[C@H](CO)[C@@H](O)[C@H](O)[C@H]2O[C@H]2C[C@](C)(N)[C@H](O)[C@H](C)O2)Oc2ccc(cc2Cl)[C@H]1O [VANCOMYCIN]	7.1%
CCCC(CCC)C(=O)O [VALPROIC ACID]	19.6%
CNC(=C[N+](=O)[O-])NCCSCc1ccc(CN(C)C)o1 [RANITIDINE]	28.8%
CC(C)(C)NCC(O)c1cc(O)cc(O)c1 (configuration not stated) [TERBUTALINE]	2.6%
C=C[C@H]1C[N@@]2CC[C@H]1C[C@@H]2[C@@H](O)c1ccnc2ccc(OC)cc12 [QUINIDINE]	62.9%
CCS(=O)(=O)CCn1c([N+](=O)[O-])cnc1C [TINIDAZOLE]	14.2%
Cc1cccc(CN2CCN(C(c3ccccc3)c3ccc(Cl)cc3)CC2)c1 (configuration not stated) [MECLIZINE]	16.4%
C=C[C@H]1C[N@@]2CC[C@H]1C[C@H]2[C@H](O)c1ccnc2ccc(OC)cc12 [QUININE]	60.2%
CCN(CC)CC(=O)Nc1c(C)cccc1C [LIDOCAINE]	-2.3%
CCCC(=O)Nc1ccc(OCC(O)CNC(C)C)c(C(C)=O)c1 (configuration not stated) [ACEBUTOLOL]	40.9%
NC(=O)N1c2ccccc2C=Cc2ccccc21 [CARBAMAZEPINE]	8.4%
O=C(O)COCCN1CCN(C(c2ccccc2)c2ccc(Cl)cc2)CC1 (configuration not stated) [CETIRIZINE]	-4.8%
C[C@](N)(Cc1ccc(O)c(O)c1)C(=O)O [METHYLDOPA]	-7.2%

Same assay, conditions: hek293

Compound	inhibition at 100 µM
C[N+](C)(C)CCO [CHOLINE]	21.3%
CC(C)N(CCC(C(N)=O)(c1ccccc1)c1ccccn1)C(C)C (configuration not stated) [DISOPYRAMIDE]	68.8%
CN1CCC[C@H]1c1cccnc1 [NICOTINE]	-3.7%
CC(=O)[C@H]1CC[C@H]2[C@@H]3CCC4=CC(=O)CC[C@]4(C)[C@H]3CC[C@]12C [PROGESTERONE]	55.7%
NCCc1ccc(O)c(O)c1 [DOPAMINE]	11.8%
OC(CCN1CCCCC1)(c1ccccc1)C1CCCCC1 (configuration not stated) [TRIHEXYPHENIDYL]	79.4%
Cn1cnc([N+](=O)[O-])c1Sc1ncnc2nc[nH]c12 [AZATHIOPRINE]	4.2%
NNc1nncc2ccccc12 [HYDRALAZINE]	6.5%
